From patent US8022218B2, “4-phenyl-5-oxo-1,4,5,6,7,8-hexahydroquinoline derivatives for the treatment of infertility” (N.V. Organon, priority 2005, dated 2011)

molecular target: T1, human FSH receptor (Homo sapiens, UniProt P23945); assay: Agonistic activity at the human FSH receptor expressed in CHO cells (CRE-luciferase reporter); format: cell-based; conditions: CHO cells stably transfected with human FSH receptor and CRE/luciferase reporter; tested 0.1 nM to 10 μM; read-out: EC50 (concentration of test compound causing half-maximal (50%) luciferase stimulation)
T1 construct: expressed in transfected cells; host or cells: Chinese Hamster Ovary (CHO) cells
T1 sequence (P23945 18-695): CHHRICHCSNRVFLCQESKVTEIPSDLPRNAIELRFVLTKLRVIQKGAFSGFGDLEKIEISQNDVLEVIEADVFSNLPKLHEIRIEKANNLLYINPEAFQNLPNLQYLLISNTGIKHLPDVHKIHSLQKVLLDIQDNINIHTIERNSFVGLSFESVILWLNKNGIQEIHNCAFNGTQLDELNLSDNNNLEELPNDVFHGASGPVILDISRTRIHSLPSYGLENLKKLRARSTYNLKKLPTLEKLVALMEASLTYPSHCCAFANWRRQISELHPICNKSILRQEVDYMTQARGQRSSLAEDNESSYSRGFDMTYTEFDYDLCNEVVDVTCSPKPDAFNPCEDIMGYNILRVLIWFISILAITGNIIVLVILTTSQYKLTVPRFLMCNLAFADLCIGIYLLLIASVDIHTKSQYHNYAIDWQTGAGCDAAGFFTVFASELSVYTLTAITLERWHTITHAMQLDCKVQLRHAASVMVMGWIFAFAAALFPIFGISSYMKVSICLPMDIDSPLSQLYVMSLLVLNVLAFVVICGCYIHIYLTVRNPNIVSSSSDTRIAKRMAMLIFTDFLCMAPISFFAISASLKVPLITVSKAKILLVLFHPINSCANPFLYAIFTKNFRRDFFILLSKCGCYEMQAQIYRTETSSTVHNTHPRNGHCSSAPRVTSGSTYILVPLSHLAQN
Experimental: Agonistic Activity of Compounds at the Human FSH Receptor Expressed in CHO Cells
Agonist activity of the compounds at the human FSH receptor was tested in Chinese Hamster Ovary (CHO) cells stably transfected with the human FSH receptor and cotransfected with a cAMP responsive element (CRE)/promotor directing the expression of a firefly luciferase reporter gene. Binding of the compound to the Gscoupled FSH receptor will result in an increase of cAMP, which in turn will induce an increased transactivation of the luciferase reporter construct. The luciferase activity was quantified using a luminescence counter. The compounds were tested in the concentration range of 0.1 nM to 10 μM. This assay was used to determine the EC50 (concentration of test compound causing half-maximal (50%) luciferase stimulation) and efficacy of the compounds compared to recombinant human FSH. For this, the software program XLfit (Excel version 2.0, built 30, ID Business Solutions Limited) was used.

Row | EC50 | SMILES
1 | < 10 nM | CCCC1CC(=O)C2=C(C1)NC(C)=C(C#N)C2c1cc(Br)c(OCc2ccccc2NC(=O)NC)c(OCC)c1 (stereo not drawn) [Example 34, 1-{2-[2-Bromo-4-(3-cyano-2-methyl-5-oxo-7-propyl-1,4,5,6,7,8-hexahydro-quinolin-4-yl)-6-ethoxy-phenoxymethyl]-phenyl}-3-methyl-urea]
2 | < 10 nM | CCCC1CC(=O)C2=C(C1)NC(C)=C(C#N)C2c1cc(Br)c(OCc2cccn2S(C)(=O)=O)c(OCC)c1 (stereo not drawn) [Example 51, 4-[3-Bromo-5-ethoxy-4-(1-methanesulfonyl-1H-pyrrol-2-ylmethoxy)-phenyl]-2-methyl-5-oxo-7-propyl-1,4,5,6,7,8-hexahydro-quinoline-3-carbonitrile]
3 | < 10 nM | CCCC1CC(=O)C2=C(C1)NC(C)=C(C#N)C2c1cc(Br)c(OCc2cccc(NC(=O)CCN(CCOC)CCOC)c2)c(OCC)c1 (stereo not drawn) [Example 11, 3-[Bis-(2-methoxy-ethyl)-amino]-N-{3-[2-bromo-4-(3-cyano-2-methyl-5-oxo-7-propyl-1,4,5,6,7,8-hexahydro-quinolin-4-yl)-6-ethoxy-phenoxymethyl]-phenyl}-propionamide]
4 | < 10 nM | CCCC1CC(=O)C2=C(C1)NC(C)=C(C#N)C2c1cc(Br)c(OCc2cccc(NC(=O)c3cc(OC)c(OC)c(OC)c3)c2)c(OCC)c1 (stereo not drawn) [Example 1, N-{3-[2-Bromo-4-(3-cyano-2-methyl-5-oxo-7-propyl-1,4,5,6,7,8-hexahydro-quinolin-4-yl)-6-ethoxy-phenoxymethyl]-phenyl}-3,4,5-trimethoxy-benzamide]
5 | < 10 nM | CCCC1CC(=O)C2=C(C1)NC(C)=C(C#N)C2c1cc(Br)c(OCc2ccccc2NC(=O)C2CC2)c(OCC)c1 (stereo not drawn) [Example 24, Cyclopropanecarboxylic acid {2-[2-bromo-4-(3-cyano-2-methyl-5-oxo-7-propyl-1,4,5,6,7,8-hexahydro-quinolin-4-yl)-6-ethoxy-phenoxymethyl]-phenyl}-amide]
6 | < 10 nM | CCCC1CC(=O)C2=C(C1)NC(C)=C(C#N)C2c1cc(Br)c(NCc2ccccc2NS(C)(=O)=O)c(OCC)c1 (stereo not drawn) [Example 58, N-(2-{[2-Bromo-4-(3-cyano-2-methyl-5-oxo-7-propyl-1,4,5,6,7,8-hexahydro-quinolin-4-yl)-6-ethoxy-phenylamino]-methyl}-phenyl)-methanesulfonamide]
7 | < 10 nM | CCCC1CC(=O)C2=C(C1)NC(C)=C(C#N)C2c1cc(Br)c(OCc2cccnc2NC(=O)OC)c(OCC)c1 (stereo not drawn) [Example 38, {3-[2-Bromo-4-(3-cyano-2-methyl-5-oxo-7-propyl-1,4,5,6,7,8-hexahydro-quinolin-4-yl)-6-ethoxy-phenoxymethyl]-pyridin-2-yl}-carbamic acid methyl ester]
8 | < 10 nM | CCC[C@@H]1CC(=O)C2=C(C1)NC(C)=C(C#N)[C@H]2c1cc(Br)c(OCc2cc(F)c(F)cc2NS(C)(=O)=O)c(OCC)c1 [Example 72, N-{2-[2-Bromo-4-((4R,7S)-3-cyano-2-methyl-5-oxo-7-propyl-1,4,5,6,7,8-hexahydro-quinolin-4-yl)-6-ethoxy-phenoxymethyl]-4,5-difluoro-phenyl}-methanesulfonamide]
9 | < 10 nM | CCCC1CC(=O)C2=C(C1)NC(C)=C(C#N)C2c1cc(Br)c(OCc2ccccc2NC(=O)OC)c(OCC)c1 (stereo not drawn) [Example 25]
10 | < 10 nM | CCCC1CC(=O)C2=C(C1)NC(C)=C(C#N)C2c1cc(Br)c(NCc2cccnc2)c(OCC)c1 (stereo not drawn) [Example 56, 4-{3-Bromo-5-ethoxy-4-[(pyridin-3-ylmethyl)-amino]-phenyl}-2-methyl-5-oxo-7-propyl-1,4,5,6,7,8-hexahydro-quinoline-3-carbonitrile]
11 | < 10 nM | CCCC1CC(=O)C2=C(C1)NC(C)=C(C#N)C2c1cc(Br)c(OCc2cccc(OCC(=O)N3CCOCC3)c2)c(OCC)c1 (stereo not drawn) [Example 17, 4-{3-Bromo-5-ethoxy-4-[3-(2-morpholin-4-yl-2-oxo-ethoxy)-benzyloxy]-phenyl}-2-methyl-5-oxo-7-propyl-1,4,5,6,7,8-hexahydro-quinoline-3-carbonitrile]
12 | < 10 nM | CCCC1CC(=O)C2=C(C1)NC(C)=C(C#N)C2c1cc(Br)c(OCc2cccc(NS(C)(=O)=O)c2)c(OCC)c1 (stereo not drawn) [Example 42, N-{3-[2-Bromo-4-(3-cyano-2-methyl-5-oxo-7-propyl-1,4,5,6,7,8-hexahydro-quinolin-4-yl)-6-ethoxy-phenoxymethyl]-phenyl}-methanesulfonamide]
13 | < 10 nM | CCCC1CC(=O)C2=C(C1)NC(C)=C(C#N)C2c1cc(Br)c(OCc2cccc(OCC(=O)N(C)C)c2)c(OCC)c1 (stereo not drawn) [Example 15, 2-{3-[2-Bromo-4-(3-cyano-2-methyl-5-oxo-7-propyl-1,4,5,6,7,8-hexahydro-quinolin-4-yl)-6-ethoxy-phenoxymethyl]-phenoxy}-N,N-dimethyl-acetamide]
14 | < 10 nM | CCCC1CC(=O)C2=C(C1)NC(C)=C(C#N)C2c1cc(Br)c(OCc2ccc(C(=N)NC)cc2)c(OCC)c1 (stereo not drawn) [Example 54, 4-[2-Bromo-4-(3-cyano-2-methyl-5-oxo-7-propyl-1,4,5,6,7,8-hexahydro-quinolin-4-yl)-6-ethoxy-phenoxymethyl]-N-methyl-benzamidine]
15 | < 10 nM | C=CC(=O)Nc1ccccc1COc1c(Br)cc(C2C(C#N)=C(C)NC3=C2C(=O)CC(CCC)C3)cc1OCC (stereo not drawn) [Example 23, N-{2-[2-Bromo-4-(3-cyano-2-methyl-5-oxo-7-propyl-1,4,5,6,7,8-hexahydro-quinolin-4-yl)-6-ethoxy-phenoxymethyl]-phenyl}-acrylamide]
16 | < 10 nM | CCCC1CC(=O)C2=C(C1)NC(C)=C(C#N)C2c1cc(Br)c(OCc2ccccc2NCC2CC2)c(OCC)c1 (stereo not drawn) [Example 62, 4-{3-Bromo-4-[2-(cyclopropylmethyl-amino)-benzyloxy]-5-ethoxy-phenyl}-2-methyl-5-oxo-7-propyl-1,4,5,6,7,8-hexahydro-quinoline-3-carbonitrile]
17 | < 10 nM | CCCC1CC(=O)C2=C(C1)NC(C)=C(C#N)C2c1cc(Br)c(OCc2cccc(NC(=O)CNCc3ccncc3)c2)c(OCC)c1 (stereo not drawn) [Example 3, N-{3-[2-Bromo-4-(3-cyano-2-methyl-5-oxo-7-propyl-1,4,5,6,7,8-hexahydro-quinolin-4-yl)-6-ethoxy-phenoxymethyl]-phenyl}-2-[(pyridin-4-ylmethyl)-amino]-acetamide]
18 | < 10 nM | CCCC1CC(=O)C2=C(C1)NC(C)=C(C#N)C2c1cc(Br)c(OCc2cccc(C(=O)N3CC=CCC3)c2)c(OCC)c1 (stereo not drawn) [Example 7, 4-{3-Bromo-4-[3-(3,6-dihydro-2H-pyridine-1-carbonyl)-benzyloxy]-5-ethoxy-phenyl}-2-methyl-5-oxo-7-propyl-1,4,5,6,7,8-hexahydro-quinoline-3-carbonitrile]
19 | < 10 nM | CCCC1CC(=O)C2=C(C1)NC(C)=C(C#N)C2c1cc(Br)c(OCc2ccccc2NC(=O)c2ccco2)c(OCC)c1 (stereo not drawn) [Example 22, Furan-2-carboxylic acid {2-[2-bromo-4-(3-cyano-2-methyl-5-oxo-7-propyl-1,4,5,6,7,8-hexahydro-quinolin-4-yl)-6-ethoxy-phenoxymethyl]-phenyl}-amide]
20 | < 10 nM | C=CCOC(=O)Nc1ccc(COc2c(Br)cc(C3C(C#N)=C(C)NC4=C3C(=O)CC(CCC)C4)cc2OCC)cc1 (stereo not drawn) [Example 50, {4-[2-Bromo-4-(3-cyano-2-methyl-5-oxo-7-propyl-1,4,5,6,7,8-hexahydro-quinolin-4-yl)-6-ethoxy-phenoxymethyl]-phenyl}-carbamic acid allyl ester]
21 | < 10 nM | CCCC1CC(=O)C2=C(C1)NC(C)=C(C#N)C2c1cc(Br)c(OCc2cccc(NC(=O)CN3CCN(CCO)CC3)c2)c(OCC)c1 (stereo not drawn) [Example 5, N-{3-[2-Bromo-4-(3-cyano-2-methyl-5-oxo-7-propyl-1,4,5,6,7,8-hexahydro-quinolin-4-yl)-6-ethoxy-phenoxymethyl]-phenyl}-2-[4-(2-hydroxy-ethyl)-piperazin-1-yl]-acetamide]
